# Assay results as given in patent US20020155540A1, “Method to reduce transcriptional interference between tandem genes” (priority 2001, published 2002).
# System: ecdysone receptor (EcR) based, chemically inducible gene expression system
# Assay: Ecdysone receptor-based gene induction: upstream LUC activation and downstream RLUC expression in protoplasts
# Assay type: cell-based, tobacco
# Description: Protoplasts were prepared from actively growing tobacco BY-2 suspension cells (Japan Tobacco, Japan) and cultured essentially as described in Kikkawa et al. (9). One ml of protoplasts (5×10^5 to 1×10^6 cells) was mixed with plasmid DNA and electroporated at 0.56 K Volts for 80 μ seconds using an electroporation system with petripulser electrode (BTX). Equimolar plasmid DNA was added to transfections and the amount of DNA added varied from 23 to 30 μg depending on the plasmid size. To standardize the luciferase enzyme assays, 2 μg of the RLUC plasmid DNA were also added to each transfection as an internal control. Following the electroporation, protoplasts were diluted with 1 ml of 2×protoplast culture medium, aliquoted as two 1 ml cultures and incubated at 27° C. for 16-17 h. Each plasmid construct was tested in 5 to 7 independent transfection experiments.
# Protoplast cultures were lysed by adding 250 μl of 5× passive lysis buffer (Promega) and shaking at room temperature for 10 minutes. […] The assay was performed with a luminometer plate reader (Dynex). The luciferase enzyme activities were measured and expressed as ratios of luciferase to Renilla luciferase activities in relative light units.
# Induction of the Luc gene expression cassette was controlled by the addition of EcR ligand methoxyfenozide.
# It contains a constitutively expressed chimeric GVE receptor gene (CsVMV promoter—sequences coding for GAL4 DNA binding domain, VP16 activation domain, and EcR ligand binding domain—NOS terminator) and an inducible promoter (five copies of GAL4 response element+minimal 35S promoter) to drive LUC gene expression (FIG. 1D). When the ligand methoxyfenozide (4) is applied to protoplasts, it binds to and activates the chimeric receptor. The activated receptor then induces LUC gene expression. This system was used to activate the upstream LUC gene, and the influence of LUC activation on the downstream constitutive RLUC gene expression was then measured.
compound,measurement,setting,value
COc1cccc(C(=O)NN(C(=O)c2cc(C)cc(C)c2)C(C)(C)C)c1C [methoxyfenozide],Luc Induced,10 μM methoxyfenozide,"25,428 RLU"
same,RLuc Induced,10 μM methoxyfenozide,8832 RLU
same,"reduction of downstream, constitutively expressed RLuc expression",after activation of upstream Luc gene with ligand,71%
